The record followed here is US4599325A, “Substituted tyrosyl alanine dipeptide amides” (G. D. Searle & Co., priority 1985, dated 1986).

Counter-ions that a name gives are not always drawn.

The target in assay [1] is opiate receptors. Briefly: Opiate binding assay (displacement of 3H-Naloxone). The settings on record: for IC50: Table 1, 3H-Naloxone, rat brain membranes. On the set-up: species or system rat. The protocol:
The test compounds were evaluated for their ability to displace the binding of ^3 H-Naloxone to opiate receptors isolate from rat brain. Male rats [COBS CD(SD)BR] obtained from Charles River Laboratories (Portage, MI) were sacrificed by cervical dislocation. A purified homogenate of receptor membranes was prepared from the brains according to the method described by Chang and Cuatrecasas. (K.-J. Chang and P. Cuatrecases. Multiple Opiate Receptors: Enkephalins And Morphine Bind To Receptors Of Different Specificity. J. Biol. Chem. 254, 2610-2618 (1979).) The brains were homogenized in 10 volumes of 0.32M sucrose and centrifuged twice at 6,000×g for 15 minutes. Following centrifugation of the supernatants at 40,000×g for 30 minutes, the pellets were allowed to swell, then centrifuged at 6,000 and 40,000×g. This process was repeated. The final pellet was resuspended in 2 volumes of 50 mM tris HCl (pH 7.4). The homogenate was assayed for protein content according to the method of Itzhaki and Gill. R. F. Itzhaki and D. M. Gill. A Micro-Biuret Method for Estimating Proteins. Anal. Biochem. 9, […] (1964).
The binding of the test compounds to the receptor membrane preparation was measured using a modification of the method of Pert and Snyder. C. B. Pert and S. H. Snyder. Properties of Opiate-Receptor Binding in Rat Brain. Proc. Natl. Acad. Sci. 70, 2243-2247 (1973). The receptor assay was run using 1 nM ^3 H-Naloxone and 2 ml of tissue homogenate (0.5 mg/ml protein concentration). Levorphanol (1×10^-5 M) was used as the displacer for non-specific binding. Both the displacer and the test compounds were added in 0.02 ml volumes. The assay was run in 0.05M tris HCl (pH 7.4) ±100 mM NaCl. Total assay volume was 2.03 ml.
Samples were incubated at 25° C. for 60 min., cooled on ice 5 min. and subsequently filtered over Whatman GF/C glass fiber filters with 2.4 ml washes of cold buffer. The filters were then solubilized in 1 ml of NCS at 50° C. for 1 hour. After solubilization, the pH was adjusted with 0.1 ml of glacial acetic acid, 10 ml of PCS was added and the samples were counted in a Nuclear Chicago Mark II liquid scintillation counter. This method was used for the following test compounds: Example 4, Example 5, Example 27, Example 28, Example 38, Example 39, and the prior art compound (4).
A modification of this method was used for the following test compounds: Example 16, Example 17, Example 21, Example 22, Example 24, Example 30, Example 31. In this modification, the total assay volume was adjusted to 1.0 ml. Samples were cooled on ice for 10 minutes and dried at 50° C. for 30 minutes, then 10 mls of PCS was added and the samples counted in a liquid scinitillation counter.
The IC50 values, the concentration of the test compounds which inhibited ^3 H-Naloxone specific binding to the opiate receptor by 50%, were obtained from log-probit plots of concentration-response curves. D. J. Finney. Probit Analysis. Cambridge University Press, London, 1947.
In general terms: Displacement assays read how much labelled ligand stays bound in the presence of the test substance.

Assay [2] concerns mice. Briefly: Combined tail flick and hot plate tests: tail flick. The assay is classed as in vivo, mouse. The settings on record: for ED50: Mus musculus, combined tail flick/hot plate; for activity in tail flick test: oral and subcutaneous, prior art at doses as great as 100 mg/kg p.o. and 50 mg/kg s.c. The protocol:
(§1) Male albino inbred mice supplied by Charles River (CD-1/HAM/1LR) weighing between 20 and 30 grams were used. Analgesia was first measured using the tail flick test in which a high intensity beam of light was focused on the blackened tail. The interval of time between onset of the light and reflex removal of the tail was defined as the tail flick latency. The average of two successive determinations was recorded. Following tail flick determination, the animals were immediately placed on a 55° C. copper hot plate to which they were restricted by an inverted 600 ml glass beaker. Hot plate latency was defined as the interval between placement on the hot plate and a behavioral response of either a jump or a hindpaw lick. One determination was recorded. Mice not responding within 4.0 seconds on the tail flick and 20.0 seconds on the hot plate were discarded from the study. The tail flick test and the hot plate test were stopped after 12.0 and 40 seconds, respectively, had elapsed to prevent tissue damage. After determination of pre-injection baseline latencies, the test compound was dissolved in distilled water and administered either orally or subcutaneously (0.1 ml/10 gram body weight). Tail flick and hot plate latencies were measured 10, 30, 60 and 90 minutes after injection. One-way analyses of variance were used to detect any significant increase in tail flick and hot plate latencies (indicative of analgesia) as compared to latencies prior to drug adminstration, as well as to establish the dose-dependence of any effect. A linear regression method (least squares) was used to determine the line of best fit. The ED50 dose was determined to be that dose of test compound that produced one-half the maximum measurable increase in latency. This corresponded to a post-drug tail flick latency of 7.5 seconds and hot plate latency of 25 seconds. G. Keppel: Design and analysis: a researcher's handbook, New Jersey, Prentice-Hall, 1973.

Assay [3] has as its system mice. Briefly: Combined tail flick and hot plate tests: hot plate. The assay is classed as in vivo, mouse. The settings on record: for ED50: Mus musculus, combined tail flick/hot plate; for activity in hot plate test of combined tests: oral and subcutaneous, prior art at doses as great as 100 mg/kg p.o. and 50 mg/kg s.c. The protocol:
as §1
(In general: Hot-plate and tail-flick tests time the reaction to a heat stimulus.)

The subject of assay [4] is spontaneous hypertensive rats (SHR). Briefly: Hypertensive test in spontaneous hypertensive rats (SHR). On the set-up: key to Antihypertensive Properties, Result: Active: Any compound that resulted in a decrease in arterial blood pressure of 20 mm Hg or greater was considered active. It is filed as in vivo, rat. The settings on record: for Antihypertensive Properties, Result: Table 3, 10 mg/kg intravenously, one unanesthetized male SHR. On the procedure: A compound's ability to act as an antihypertensive agent was determined using spontaneous hypertensive rats (SHR). Male SHR were maintained in-house for 1 or more weeks before use and were between 11 and 16 weeks old. The test compound was administered intravenously and the initial mean arterial blood pressure was measured directly via an arterial catheter implanted immediately before administration of the compound. Blood pressure readings were made 5, 10 and 15 minutes after administration of the compound. […] Statistical comparisons were made using the unpaired student's test.
The following compounds of the invention were evaluated for their antihypertensive properties using the spontaneous hypertensive rat (SHR). […] The SHR test was essentially that described earlier. Each compound listed in Table 3, was administered intravenously to one unanesthetized, male, spontaneously hypertensive rat; the dosage was 10 mg/kg.

A word on the IC50: it is the midpoint of a concentration-inhibition curve. Broadly, the ED50 is the dose that gives a 50% effect, or the effect in half of the subjects. With `Cc1cc(O)cc(C)c1C[C@H](N)C(=O)N[C@H](C)C(=O)NCCCc1ccccc1` [Example 5, 2,6-dimethyltyrosyl-N-(3-phenylpropyl)-D-alaninamide, hydrochloride], the IC50 in assay [1] (hydrochloride) was 27 nM. Also, in assay [1] (greater affinity than prior art compound), the “affinity to the opiate receptor relative to the prior art compound” value is given as “tenfold”. The ED50 in assay [2] (po, p.o., read-out: Tail Flick (ED50) p.o.) was 115 mg/kg; in assay [2] (sc, s.c., read-out: Tail Flick (ED50) s.c.), 35 mg/kg; in assay [3] (po, p.o., read-out: Hot Plate (ED50) p.o.), 52 mg/kg; in assay [3] (sc, s.c., read-out: Hot Plate (ED50) s.c.) it was 9 mg/kg. The “activity in tail flick test” value in assay [2] is listed as “active”. In addition, in assay [3], the “activity in hot plate test of combined tests” value is given as “active”. For the same compound, the “SHR Blood Pressure, dose printed (active at)” value in assay [4] (Table 2, i.v.) was determined as 1 mg/kg. The “Antihypertensive Properties, Result” value in assay [4] is “Active”.

In assay [1], “tyrosine-D-alanine-phenylpropylamide [Prior Art, reference compound]” showed an IC50 of 430 nM. For the same compound, in assay [2] (50 mg/kg s.c.), the “Tail Flick, activity at stated dose s.c.” value is given as “Inactive”. The “Tail Flick, activity at stated dose p.o.” value in assay [2] (100 mg/kg p.o.) is given as “Inactive”. In assay [2], the “activity in tail flick test” value was “not active”. Also, the “Hot Plate, activity at stated dose s.c.” value in assay [3] (50 mg/kg s.c.) was “Inactive”. Moreover, the “Hot Plate, activity at stated dose p.o.” value in assay [3] (100 mg/kg p.o.) is “Inactive”. Besides, the “activity in hot plate test of combined tests” value in assay [3] is “not active”. Also, in assay [4] (Table 2, 10 mg/kg i.v.), the “SHR Blood Pressure, activity at stated dose” value is given as “Active”. The “Antihypertensive Properties, Result” value in assay [4] was “Active”.
